Laboratory results: US20070086953A1, “Medicinal Aerosol Formulation Products With Improved Chemical Stability” (priority 2004, published 2007)

Assays:
[1] = 4 μg/63 μl, stored upright at 5° C., teflon-coated aluminium canisters, EPDM gaskets, after nine months; cited from earlier work
[2] = Stability study of TA 2005 HFA solution formulation in MDI cans, 40° C. and 75% relative humidity; type: physicochemical; conditions: three months, mean of two cans
Method: A formulation for delivering a nominal dose of 1 μg per actuation of TA 2005 was prepared with the composition as follows:
The formulation (120 actuations/canister, overage of 30 actuations) was filled in aluminium canisters having the internal surface coated with Teflon (two stage pressure filling) and fitted with a metering valve having a 63 μl metering chamber provided with a butyl rubber gasket as described in WO 03/078538 (Bespak) cited above. In particular, the gaskets were made of a bromobutyl rubber made of approximately 97% isobutylene and approximately 3% isoprene and having been polymerised by using an aluminium chloride catalyst and by treating the thus obtained isoprene-isobutylene rubber with bromine.
The same formulation was filled in the same kind of cans fitted with valves provided with EPDM rubber gaskets.
A stability study was carried out storing the formulation in upright and inverted cans at 40° C. and 75% relative humidity.
The stability test in Examples 1 and 2 was carried out both in upright and inverted cans. In inverted position, the formulation is in direct contact with the valve materials for all the duration of the test in order to detect possible chemical interactions with the valve materials that may negatively affect the stability of the active ingredient in the formulation. In upright cans the interactions between the valve materials and the formulation are very limited and so also the possible negative effects on the stability of the active ingredient in the formulation may be unnoticed.

Compound: COc1ccc(C[C@@H](C)NC[C@H](O)c2ccc(O)c3[nH]c(=O)ccc23)cc1.Cl [TA 2005, 8-hydroxy-5-[(1R)-1-hydroxy-2-[[(1R)-2-(4-methoxyphenyl)-1-methylethyl]amino]ethyl]-2(1H)-quinolinone hydrochloride]
- TA 2005 assay [1]: higher than 95%
- percent amount of TA 2005 ([2]; inverted cans, EPDM rubber gaskets): 77%
- percent amount of TA 2005 ([2]; inverted cans, bromobutyl rubber gaskets): 97%
- percent amount of TA 2005 ([2]; upright cans, EPDM rubber gaskets): 98%
- percent amount of TA 2005 ([2]; upright cans, bromobutyl rubber gaskets): 98%
